Source: article PMC9035832, “Synthesis and Evaluation of a Non-Peptide Small-Molecule Drug Conjugate Targeting Integrin αVβ3” (Frontiers in Chemistry, 2022)
Numbered stars: 1 amine (or outer) side, 2 acyl side, 3 side chain; on linkers, the order of the positions; unused ones are H or OH. Bridge positions count the residues as written; N and C are the ends. Square brackets hold non-standard residues; d marks the D form. Peptide text beside a SMILES is read from it. I, II: the chains in the order shown. * marks the point of attachment. Dolaproine = CO[C@@H]([C@@H]1CCCN1)[C@@H](C)C(=O)O; Dil = CC[C@H](C)[C@H](NC)[C@@H](CC(=O)O)OC; X1 = O=C(CCCc1cn(CCOCCOCCN[*:1])nn1)[*:2]; PABC = O=C(OCc1ccc(N[*:1])cc1)[*:2]; X2 = C[C@@H](N*)[C@@H](O)c1ccccc1; Suc = O=C(CCC(=O)[*:2])[*:1]; NMeV = CN[C@H](C(=O)O)C(C)C

What was measured:
M21-L cells = assay: Cell adhesion assay on vitronectin, αVβ3-negative cells; format: cell-based; details: for IC50: adhesion of M21-L cells to vitronectin, read-out: M21-L (αV−, αVβ3−) IC50, cell adhesion
Description: (§1) WM115 cells were cultivated and used in the MEM Eagle medium (Pan Biotech P04-08500 with 10% fetal bovine serum, 50 μg/ml gentamycin, and 0.5 mM sodium pyruvate) and M21-L cells in the RPMI medium (Pan Biotech P04-16500 with 10% fetal bovine serum, 1% Pen-Strep). A flat-bottom MaxiSorp Nunc 96-well plate was coated with recombinant human vitronectin (100 µl/well, 1 μg/ml, Peprotech) in the PBS buffer (137 mM NaCl, 2.7 mM KCl, 10 mM Na2HPO4, 2 mM KH2PO4, pH 7.4) at 4°C and blocked at the following day by adding a solution of fatty acid free milk powder in PBS buffer (5 w/v %, 100 µl/well) at 4°C. The WM115 and M21-L cells were washed with the PBS buffer, detached with Accutase solution (5 ml, Pan Biotech P10-21100) at 37°C for 5 min, and then diluted with the medium (15 ml). After centrifugation (850 rpm, 6 min), the resulting cell pellet was resuspended with fluorescein diacetate in the medium (fluorescein diacetate 1.5 mg/ml, cell density 5·× 10^5 cells/ml) and incubated for 30 min at 37°C in the dark. The cells were washed twice with the medium and then resuspended in the medium (cell density 5 × 10^5 cells/ml). Afterward, a solution of CaCl2, MnCl2, and MgCl2 (each 100 mM) in the PBS buffer (90 µl) was transferred to the cells and incubated for 30 min on ice in the dark. In the meantime, a dilution series of the compounds in the medium (1:3 dilution) was prepared, and 240 µl were transferred to Eppendorf tubes. Pure medium was used as a positive control. Cell suspension (240 µl) was added to each tube of the dilution series and the control, followed by incubation at 37°C for 30 min in the dark. The assay plate was discharged and washed with 200 µl/well medium. Then the cell suspension with different compound concentrations was added to the assay plate (100 µl/well) and incubated for 60 min at 37°C in the dark. Afterward, the assay plate was washed with the medium (3 × 100 µl/well), and finally, the medium (100 µl/well) was added and the fluorescence was measured with a TecanReader (Excitation: 480 nm; Emission: 520 nm). The determined values were plotted and analyzed using OriginPro® 2020b where the inflection point of a DoseResp fit described the IC50 value.
WM115 cells were cultivated and used in MEM Eagle medium (Pan Biotech P04-08500 with 10 % foetal bovine serum, 50 µg/mL gentamycin, 0.5 mM sodium pyruvate) and M21-L cells in RPMI medium (Pan Biotech P04-16500 with 10 % foetal bovine serum, 1 % Pen-Strep). Overnight a flat-bottom MaxiSorp Nunc 96-well plate was coated with recombinant human vitronectin (100 µL/well, 1 µg/mL, Peprotech) in PBS buffer (137 mM NaCl, 2.7 mM KCl, 10 mM Na2HPO4,2 mM KH2PO4, pH 7.4) at 4 °C and blocked at the following day by adding a solution of fatty acid free milk powder in PBS buffer (5 w/v %, 100 µL/well) at 4 °C. […]

WM115 cells [1] = assay: Cell adhesion assay on vitronectin, αVβ3-positive cells; format: cell-based; details: adhesion of WM115 cells to vitronectin
Description: as §1, with “Then the cell suspension with different compound concentrations was added to the assay plate (100 µl/well) and incubated for 60 min at 37°C in the dark.” left out, “value. […]” for “value.”

[2] = Cell viability assay (resazurin based); details: WM115 cells, 3 days incubation, resazurin; read-out: Cytotoxicity IC50
Description: (§2) WM115 cells were cultivated in the MEM medium (with 10% fetal bovine serum, 50 μg/ml gentamycin, and 0.5 mM sodium pyruvate) at 37°C and 5.3% CO2-humidified air in an incubator. The cells were seeded in a sterile flat-bottom cell culture 96-well plate (Sarstedt) in a density of 10,000 cells/well (100 µl/well) and incubated for 1 day as described. A serial dilution (1:3 dilution) of the compounds and the standard (cryptophycin-52) in the medium was prepared and transferred to the assay plate (100 µl/well), followed by incubation for 3 days as described. Afterward, a solution of resazurin (175 μM, 30 µl/well) was added, followed by incubation for 6 h. Subsequently, the fluorescence was measured with a TecanReader (Excitation: 530 nm; Emission: 588 nm) and plotted and analyzed using OriginPro® 2020b where the inflection point of a DoseResp fit described the IC50 value. […]
(§3) WM115 cells were cultivated in MEM medium (with 10 % foetal bovine serum, 50 µg/mL gentamycin, 0.5 mM sodium pyruvate) at 37 °C and 5.3 % CO2-humidified air in an incubator. The cells were seeded in a sterile flat-bottom cell culture 96-well plate (Sarstedt) in a density of 10000 cells/well (100 µL/well) and incubated for 1 day as described. A dilution series (1:3 dilution) of the compounds and the standard (cryptophycin-52) in medium was prepared and transferred to the assay plate (100 µL/well) followed by incubation for 3 d as described. Afterwards a solution of resazurin (175 µM, 30 µL/well) was added followed by incubation for 6 h. Subsequently, the fluorescence was measured with a TecanReader (Excitation: 530 nm; Emission: 588 nm) as well as plotted and analysed using OriginPro® 2020b where the inflection point of a DoseResp fit describes the IC50 value.

WM115 cells [3] = assay: Cell viability assay (resazurin based); details: for fold less cytotoxic than MMAE: relative to free MMAE; for IC50: 3 days incubation, resazurin, read-out: Cytotoxicity IC50
Description: as §2, §3

| Compound | effect on cell adhesion of αVβ3-negative cells (M21-L cells; M21-L cell line, adhesion to vitronectin) | IC50 (M21-L cells) | IC50 (WM115 cells [1]) | IC50 [2] | TI (RAD/RGD), targeting index (WM115 cells [3]; TI = [IC50 (17)]/[IC50 (compound)]) | fold less cytotoxic than MMAE (WM115 cells [3]) | IC50 (WM115 cells [3]) |
| --- | --- | --- | --- | --- | --- | --- | --- |
| CC[C@H](C)[C@@H]([C@@H](CC(=O)N1CCC[C@H]1[C@H](OC)[C@@H](C)C(=O)N[C@H](C)[C@@H](O)c1ccccc1)OC)N(C)C(=O)[C@@H](NC(=O)[C@H](C(C)C)N(C)C(=O)OCc1ccc(NC(=O)[C@H](C)NC(=O)[C@@H](NC(=O)[C@H](CCC(=O)O)NC(=O)CCCc2cn(CCOCCOCCOc3ccc(C(=O)N[C@@H](Cc4ccc(OCCCCCNC5=NCCN5)cc4)C(=O)O)cc3)nn2)C(C)C)cc1)C(C)C [compound 18] | no effect | > 100 µM | 8.05 ± 0.51 µM | 0.095 ± 0.025 µM | 2.8 | about 50 fold | – |
| CC[C@H](C)[C@@H]([C@@H](CC(=O)N1CCC[C@H]1[C@H](OC)[C@@H](C)C(=O)N[C@H](C)[C@@H](O)c1ccccc1)OC)N(C)C(=O)[C@@H](NC(=O)[C@H](C(C)C)N(C)C(=O)OCc1ccc(NC(=O)[C@H](C)NC(=O)[C@@H](NC(=O)[C@H](CCC(=O)O)NC(=O)CCCc2cn(CCOCCOCCNC(=O)CCC(=O)NCCCC[C@@H]3NC(=O)[C@@H](Cc4ccccc4)NC(=O)[C@H](CC(=O)O)NC(=O)CNC(=O)[C@H](CCCNC(=N)N)NC3=O)nn2)C(C)C)cc1)C(C)C [compound 16] | – | > 100 µM | 2.65 ± 0.35 µM | – | – | about 50 fold | 0.0914 ± 0.0123 µM |
| CC[C@H](C)[C@@H]([C@@H](CC(=O)N1CCC[C@H]1[C@H](OC)[C@@H](C)C(=O)N[C@H](C)[C@@H](O)c1ccccc1)OC)N(C)C(=O)[C@@H](NC(=O)[C@H](C(C)C)N(C)C(=O)OCc1ccc(NC(=O)[C@H](C)NC(=O)[C@@H](NC(=O)[C@H](CCC(=O)O)NC(=O)CCCc2cn(CCOCCOCCNC(=O)CCC(=O)NCCCC[C@@H]3NC(=O)[C@@H](Cc4ccccc4)NC(=O)[C@H](CC(=O)O)NC(=O)[C@H](C)NC(=O)[C@H](CCCNC(=N)N)NC3=O)nn2)C(C)C)cc1)C(C)C [compound 17] (I: [X1]EVA[PABC][NMeV]V[Dil][Dolaproine]-X2 / II: cyclo(AD[dF]KR); linker I:N-II:4 via Suc) | – | > 100 µM | 79.1 ± 1.69 µM | – | – | 150 fold | 0.264 ± 0.0246 µM |
